# Results published in patent EP0326331B1, “Substituted quinolines and cinnolines” (Dow AgroSciences LLC, priority 1988, dated 1989).
# Assays:
# Format in all cases: in vivo
# [1] = test system: Pseudoperonospora cubensis (downy mildew); assay: Test 1 greenhouse foliar spray screen, downy mildew on squash; settings: disease control rating, foliar spray on squash, 400 ppm (+++ at 100 ppm)
# [2] = test system: Erysiphe graminis tritici (powdery mildew); assay: Test 1 greenhouse foliar spray screen, powdery mildew on wheat; settings: disease control rating, foliar spray on wheat, 400 ppm (+++ at 100 ppm)
# [3] = test system: Puccinia recondita tritici (leaf rust); assay: Test 1 greenhouse foliar spray screen, leaf rust on wheat; settings: disease control rating, foliar spray on wheat, 400 ppm (+++ at 100 ppm)
# [4] = test system: melon aphids (Aphis gossypii Glover); assay: Mite/insect screen, MA; settings: Aphis gossypii, percent mortality, SAW, read-out: MA RESULTS %; for mortality at 200 ppm: SM & MA RATE 200 PPM; for mortality at 400 ppm: SM & MA RATE 400 PPM
# Protocol: (§1) The compounds of Examples 1-295 were tested for miticidal and insecticidal activity in the following mite/insect screen.
# (§2) Each test compound was formulated by dissolving the compound in acetone/alcohol (50:50) mixture containing 23 g of "TOXIMUL R" (sulfonate/nonionic emulsifier blend) and 13 g of "TOXIMUL S" (sulfonate/nonionic emulsifier blend) per liter. These mixtures were then diluted with water to give the indicated concentrations.
# (§3) Other plants in the same treatment pot were left uninfested. The leaves were then sprayed with 5 ml of test solution using a DeVilbiss atomizing sprayer at 10 psi. Both surfaces of the leaves were covered until runoff, and then allowed to dry for one hour. Two uninfested leaves were then excised and placed into a Petri dish containing southern armyworm (Spodopetra eridania Cramer).
# (§4) After standard exposure periods, percent mortality was evaluated. […]
# [5] = test system: Pyricularia oryzae (rice blast); assay: whole plant or invertebrate; settings: disease control rating, foliar spray on rice, 400 ppm (+++ at 100 ppm)
# [6] = test system: corn rootworm; assay: Mite/insect screen, CRW; settings: percent mortality, read-out: CRW RESULTS %; for mortality at 12 ppm: CRW RATE 12.00 PPM; for mortality at 24 ppm: CRW RATE 24.00 PPM
# Protocol: as §1, §2, §4
# [7] = test system: Twospotted spider mites (Tetranychus urticae Koch); assay: Mite/insect screen, SM; settings: Tetranychus urticae, percent mortality, SAW, read-out: SM RESULTS %; for mortality at 200 ppm: SM & MA RATE 200 PPM; for mortality at 400 ppm: SM & MA RATE 400 PPM
# Protocol: as §1, §2, §3, §4
# [8] = test system: southern armyworm (Spodopetra eridania Cramer); assay: Mite/insect screen, SAW; settings: Spodoptera eridania, percent mortality, SAW, read-out: SAW RESULTS %; for mortality at 200 ppm: SM & MA RATE 200 PPM; for mortality at 400 ppm: SM & MA RATE 400 PPM
# Protocol: as §1, §2, §3, §4
# [9] = test system: Botrytis cinerea (gray mold); assay: Test 1 greenhouse foliar spray screen, gray mold on grape berries; settings: disease control rating, spray on grape berries, 400 ppm (+++ at 100 ppm)
Structure (SMILES),DOWN MDEW [1],POWD MDEW [2],LEAF RUST [3],mortality at 200 ppm [4] [%],RICE BLAST [5],mortality at 12 ppm [6] [%],mortality at 200 ppm [7] [%],mortality at 200 ppm [8] [%],GRAY MOLD [9],mortality at 400 ppm [4] [%],mortality at 24 ppm [6] [%],mortality at 400 ppm [7] [%],mortality at 400 ppm [8] [%]
"CCc1cccc2c(NCCc3ccccc3)ccnc12 [Example 29, 8-ethyl-N-(2-phenylethyl)-4-quinolinamine]",- (0-19% control at 400 ppm),- (0-19% control at 400 ppm),+ (20-89% control at 400 ppm),0,+ (20-89% control at 400 ppm),0,0,0,- (0-19% control at 400 ppm),,,,
"Clc1ccc(CCNc2ccnc3cc(Cl)ccc23)cc1 [Example 37, 7-chloro-N-[2-(4-chlorophenyl)ethyl]-4-quinolinamine]",+ (20-89% control at 400 ppm),+ (20-89% control at 400 ppm),+ (20-89% control at 400 ppm),0,- (0-19% control at 400 ppm),0,0,0,- (0-19% control at 400 ppm),0,0,0,0
"Fc1cc(F)c2nccc(NCCc3ccc(-c4ccccc4)cc3)c2c1 [Example 40, 6,8-difluoro-N-(2-[1,1'-biphenyl]-4-ylethyl)-4-quinolinamine]",+ (20-89% control at 400 ppm),- (0-19% control at 400 ppm),+++ (90-100% control at 100 ppm),0,++ (90-100% control at 400 ppm),0,0,0,- (0-19% control at 400 ppm),0,100,0,80
"FC(F)(F)c1ccc2c(NCCc3ccc(Cl)cc3)ccnc2c1 [Example 47, N-[2-(4-chlorophenyl)ethyl]-7-(trifluoromethyl)-4-quinolinamine]",+ (20-89% control at 400 ppm),+ (20-89% control at 400 ppm),+ (20-89% control at 400 ppm),0,- (0-19% control at 400 ppm),0,0,0,- (0-19% control at 400 ppm),0,0,0,0
"Cc1ccc(CCNc2ccnc3ccc(C)cc23)cc1 [Example 58, 6-methyl-N-[2-(4-methylphenyl)ethyl]-4-quinolinamine]",+++ (90-100% control at 100 ppm),- (0-19% control at 400 ppm),+ (20-89% control at 400 ppm),,- (0-19% control at 400 ppm),,,,- (0-19% control at 400 ppm),0,0,0,0
"Clc1ccc(CCNc2ccnc3cc(Cl)cc(Cl)c23)cc1 [Example 59, 5,7-dichloro-N-[2-(4-chlorophenyl)ethyl]-4-quinolinamine]",- (0-19% control at 400 ppm),+ (20-89% control at 400 ppm),- (0-19% control at 400 ppm),0,+ (20-89% control at 400 ppm),0,0,0,- (0-19% control at 400 ppm),0,0,0,0
